# Experiments:
# [1] = log P by HPLC on reversed phase columns (Method L0)
# Method: Measurement of log P values was performed according to EEC directive 79/831 Annex V.A8 by HPLC (High Performance Liquid Chromatography) on reversed phase columns with the following methods: • ^[a] log P value is determined by measurement of LC-UV, in an acidic range, with 0.1% formic acid in water and acetonitrile as eluent (linear gradient from 10% acetonitrile to 95% acetonitrile). • ^[b] log P value is determined by measurement of LC-UV, in a neutral range, with 0.001 molar ammonium acetate solution in water and acetonitrile as eluent (linear gradient from 10% acetonitrile to 95% acetonitrile).
# Calibration was done with straight-chain alkan-2-ones (with 3 to 16 carbon atoms) with known log P values (measurement of log P values using retention times with linear interpolation between successive alkanones).
# [2] = system: Dirofilaria immitis microfilariae; assay: In vitro assay 3: Dirofilaria immitis microfilariae (DIROIM L1), motility; settings: 72 h, read-out: EC50 (reduction of motility), 72 h incubation
# C. elegans Slo-1a = C. elegans Slo-1a (Caenorhabditis elegans, UniProt Q95V25); settings: pE50 (negative decadic logarithm of EC50), CHO cells expressing C. elegans Slo-1a, voltage sensitive dye
# Method: In Vitro Assay 1: C. elegans Slo-1a—Action at a Recombinant C. elegans Cell Line
# Cells were cultured at 37° C. and 5% CO2 in MEMalpha with Gutamax I (Invitrogen, Nr.: 32571), supplemented with 10% (v/v) heat inactivated fetal bovine serum (Invitrogen, Nr.: 10500), G418 (1 mg/ml, Invitrogen, Nr.: 10131). Cells were detached using Accutase (Sigma, Nr.: A6964).
# Membrane Potential Measurements
# Laboratory compound testing was performed on 384-well microtiter plates (MTPs, Greiner, Nr.: 781092). 8000 cells/well were plated onto 384-well MTPs and cultured for 20 to 24 hours at 37° C. and 5% CO2. After removal of the cell culture medium, the cells were washed once with tyrode (150 mM NaCl, 0.3 mM KCl, 2 mM CaCl2, 1 mM MgCl2, 0.8 mM NaH2PO4, 5 mM Glucose, 28 mM Hepes, pH 7.4) and then loaded with the voltage sensitive dye of the Membrane Potential Assay Kit diluted in tyrode for 1 h at room temperature.
# After starting the measurement of fluorescence using a FLIPR Tetra (Molecular Devices, Exc. 510-545 nm, Emm. 565-625 nm), test compounds were added followed by the addition of KCl tyrode (final assay concentration: 70 mM KCl, 2 mM CaCl2, 1 mM MgCl2, 0.8 mM NaH2PO4, 5 mM Glucose, 28 mM Hepes, pH 7.4, including the voltage sensitive dye). The measurement was completed after 7 minutes.
# The data were evaluated by using the ActivityBase XLfit software (IDBS) for curve fitting and calculation of the half-maximal effective concentration (EC50) and are reported as negative decadic logarithm (pE50).
# [3] = system: Nippostrongylus brasiliensis; assay: In vitro assay 2: Nippostrongylus brasiliensis (NIPOBR), acetylcholine esterase readout; settings: 1 μg/ml, read-out: activity (reduction of AChE compared to negative control)
# In short: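 Adult worms, washed in saline with antibiotics/antimycotic, were incubated in medium with compound (DMSO stock) at 10 μg/ml (10 ppm) or 1 μg/ml (1 ppm). Acetylcholine esterase activity in a medium aliquot was measured against a negative control as the anthelmintic readout.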
# [4] = HPLC on reversed phase columns, Method L0
# [5] = acidic range, 0.1% formic acid in water / acetonitrile
# C. elegans Slo-1a, sequence (Q95V25 whole entry): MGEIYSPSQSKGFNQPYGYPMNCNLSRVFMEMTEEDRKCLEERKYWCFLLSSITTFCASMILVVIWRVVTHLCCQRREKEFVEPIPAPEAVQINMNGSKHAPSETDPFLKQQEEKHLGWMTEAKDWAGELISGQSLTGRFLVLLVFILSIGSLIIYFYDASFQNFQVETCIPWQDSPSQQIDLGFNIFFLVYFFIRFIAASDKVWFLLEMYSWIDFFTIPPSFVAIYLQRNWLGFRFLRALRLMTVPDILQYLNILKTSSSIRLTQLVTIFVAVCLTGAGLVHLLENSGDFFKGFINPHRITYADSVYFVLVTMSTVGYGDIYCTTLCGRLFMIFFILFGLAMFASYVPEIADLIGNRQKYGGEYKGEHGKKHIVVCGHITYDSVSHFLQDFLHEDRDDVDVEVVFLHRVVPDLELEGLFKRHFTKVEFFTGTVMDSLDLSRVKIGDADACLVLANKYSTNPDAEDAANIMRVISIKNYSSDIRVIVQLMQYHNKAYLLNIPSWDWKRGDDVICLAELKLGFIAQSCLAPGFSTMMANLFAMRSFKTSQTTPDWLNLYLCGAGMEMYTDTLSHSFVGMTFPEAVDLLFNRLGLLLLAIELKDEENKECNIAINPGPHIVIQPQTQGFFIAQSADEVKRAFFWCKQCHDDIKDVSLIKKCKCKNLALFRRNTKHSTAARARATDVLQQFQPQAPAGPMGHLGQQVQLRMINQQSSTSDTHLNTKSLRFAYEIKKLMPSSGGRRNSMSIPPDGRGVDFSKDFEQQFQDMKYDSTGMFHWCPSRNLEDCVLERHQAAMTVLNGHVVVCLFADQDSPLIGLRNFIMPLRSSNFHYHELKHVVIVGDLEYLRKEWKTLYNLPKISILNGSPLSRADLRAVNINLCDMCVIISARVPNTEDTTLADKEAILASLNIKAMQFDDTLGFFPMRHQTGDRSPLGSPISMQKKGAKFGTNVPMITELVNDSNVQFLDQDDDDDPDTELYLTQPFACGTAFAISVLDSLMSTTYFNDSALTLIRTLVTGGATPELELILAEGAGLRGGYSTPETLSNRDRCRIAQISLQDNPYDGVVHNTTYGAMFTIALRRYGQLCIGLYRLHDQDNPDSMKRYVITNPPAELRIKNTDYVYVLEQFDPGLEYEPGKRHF
smiles,measurement,setting,value
CC(=O)N1CCN(c2c(C(=O)N[C@H]3CCc4ccccc43)cnc3c(-c4cc(Cl)cc(Cl)c4)cccc23)CC1 [Example 116],logP (Method L0)[a],[1]; [4],3.4
O=C(N[C@H]1CCOc2ccccc21)c1cnc2c(-c3cc(F)cc(F)c3F)c(F)ccc2c1N1CCOCC1 [Example 540],logP (Method L0)^[a],[1]; [4],3.72
CCC(CO)Nc1c(C(=O)NC2CCc3ccccc32)cnc2c(-c3cc(Cl)cc(Cl)c3)cccc12 (stereo not shown) [Example 99-2],logP (Method L0)[a],[1]; [4],2.1
CC[S+]([O-])c1c(C(=O)N[C@H]2CCOc3ccccc32)cnc2c(-c3cccc(Cl)c3Cl)cccc12 (stereo partly shown) [Example 368],logP (Method L0)^[a],[1]; [4],3.76
O=C(N[C@H]1CCc2ccccc21)c1cnc2c(-c3cc(Cl)cc(Cl)c3)cccc2c1N1CCC(F)(F)C1 [Example 112],logP (Method L0)[a],[1]; [4],2.6
CCN(CCOC)c1c(C(=O)N[C@H]2CCc3ccccc32)cnc2c(-c3cc(Cl)cc(Cl)c3)cccc12 [Example 90],logP (Method L0)[a],[1]; [4],4.9
CC(C)(C)OC(=O)CNc1c(C(=O)N[C@H]2CCOc3ccccc32)cnc2c(-c3cc(Cl)cc(Cl)c3)cccc12 [Example 182],logP (Method L0),[1]; [4],3.3
O=C(N[C@H]1CCc2ccccc21)c1cnc2c(-c3cc(Cl)cc(Cl)c3)cccc2c1NCCO [Example 100],logP (Method L0)[a],[1]; [4],1.9
O=C(O)c1cnc2c(-c3cccc(Cl)c3Cl)cccc2c1N1CCOCC1 [Example 1W-15],logP (Method L0)[a],[1]; [5],1.86
NC(=O)CNc1c(C(=O)N[C@H]2CCc3ccccc32)cnc2c(-c3cc(Cl)cc(Cl)c3)cccc12 [Example 129],logP (Method L0)[a],[1]; [4],1.8
CCCNc1c(C(=O)N[C@H]2CCOc3ccccc32)cnc2c(-c3cc(Cl)cc(Cl)c3)cccc12 [Example 184],logP (Method L0),[1]; [4],3
CN(C)c1c(C(=O)N[C@H]2CCOc3ccccc32)cnc2c(-c3cc(Cl)cc(Cl)c3)cccc12 [Example 8],logP (Method L0)[a],[1]; [4],2.53
CN(CCN1CCCC1=O)c1c(C(=O)N[C@H]2CCOc3ccccc32)cnc2c(-c3cc(Cl)cc(Cl)c3)cccc12 [Example 328],logP (Method L0)^[a],[1]; [4],3.3
Cc1nc2c(-c3cccc(Cl)c3Cl)cccc2c(N(C)C)c1C(=O)N[C@H]1CCOc2ccccc21 [Example 523],logP (Method L0)^[a],[1]; [4],2.11
CCOC(=O)c1cnc2c(-c3cc(Cl)cc(Cl)c3)cccc2c1N1CCOCC1 [Example 1U-13],logP (Method L0)[a],[1]; [5],5.19
CON(C)c1c(C(=O)N[C@H]2CCOc3ccccc32)cnc2c(-c3cc(Cl)cc(Cl)c3)cccc12 [Example 250],logP (Method L0),[1]; [4],4.87
CCOC(=O)c1cnc2c(-c3cc(F)cc(F)c3F)cccc2c1N(C)C [Example 1U-5],logP (Method L0)[a],[1]; [5],2.40
CN(C)c1c(C(=O)N[C@H]2CCOc3cc(F)ccc32)cnc2c(-c3cc(Cl)cc(Cl)c3)cccc12 [Example 152],logP (Method L0)[a],[1]; [4],3
O=C(N[C@H]1CCOc2ccccc21)c1cnc2c(-c3cc(Cl)cc(Cl)c3)cccc2c1C1CC1 [Example 358],logP (Method L0)^[a],[1]; [4],4.9
O=C(N[C@H]1CCOc2ccccc21)c1cnc2c(-c3cc(F)cc(F)c3F)c(Cl)ccc2c1N1CCOCC1 [Example 576],logP (Method L0)^[a],[1]; [4],3.90
O=C(N[C@H]1CCc2ccccc21)c1cnc2c(-c3cc(Cl)cc(Cl)c3)cccc2c1NCCN1CCCC1 [Example 96],logP (Method L0)[a],[1]; [4],1.4
COC(=O)CNc1c(C(=O)N[C@H]2CCc3ccccc32)cnc2c(-c3cc(Cl)cc(Cl)c3)cccc12 [Example 128],logP (Method L0)[a],[1]; [4],2.1
CC[S+]([O-])c1c(C(=O)N[C@H]2CCOc3ccccc32)cnc2c(-c3cc(Cl)cc(Cl)c3)cccc12 (stereo partly shown) [Example 370],logP (Method L0)^[a],[1]; [4],4.44
"O=C(N[C@H]1CCOc2ccccc21)c1cnc2c(-c3cc(Cl)cc(Cl)c3)cccc2c1-n1ccnn1 [Example 188, 8-(3,5-dichlorophenyl)-N-[(4S)-3,4-dihydro-2H-chromen-4-yl]-4-(1H-1,2,3-triazol-1-yl)quinoline-3-carboxamide]",EC50,[2],< 0.1 µg/mL
same,chromatographic logP,[1],4.5
same,EC50,C. elegans Slo-1a,3.16 to 31.6 nM
CN(CCO)c1c(C(=O)N[C@H]2CCOc3ccccc32)cnc2c(-c3cc(Cl)cc(Cl)c3)cccc12 [Example 138],logP (Method L0)[a],[1]; [4],2.7
CON(C)c1c(C(=O)N[C@H]2CCOc3ccccc32)cnc2c(-c3cccc(Cl)c3Cl)cccc12 [Example 249],logP (Method L0),[1]; [4],3.99
CN(C)CCNc1c(C(=O)N[C@H]2CCc3ccccc32)cnc2c(-c3cc(Cl)cc(Cl)c3)cccc12 [Example 88],logP (Method L0)[a],[1]; [4],1.3
CCNc1c(C(=O)N[C@H]2CCOc3ccccc32)cnc2c(-c3cc(Cl)cc(Cl)c3)cccc12 [Example 153],logP (Method L0)[a],[1]; [4],2.1
CON(C)c1c(C(=O)N[C@H]2CCOc3ccccc32)cnc2c(-c3ccccc3Cl)cccc12 [Example 248],logP (Method L0),[1]; [4],3.41
O=C(N[C@H]1CCOc2ccccc21)c1cnc2c(-c3cc(Cl)cc(Cl)c3)cccc2c1Nc1ccncc1 [Example 136],logP (Method L0)[a],[1]; [4],2.1
NCCNc1c(C(=O)N[C@H]2CCOc3ccccc32)cnc2c(-c3cc(Cl)cc(Cl)c3)cccc12 [Example 185],logP (Method L0),[1]; [4],2
CN(CC(=O)OC(C)(C)C)c1c(C(=O)N[C@H]2CCOc3ccccc32)cnc2c(-c3cc(Cl)cc(Cl)c3)cccc12 [Example 183],logP (Method L0),[1]; [4],6
CN(c1c(C(=O)N[C@H]2CCOc3ccccc32)cnc2c(-c3cccc(Cl)c3Cl)cccc12)C1CC1 [Example 253],logP (Method L0),[1]; [4],2.8
CN(CC1CC1)c1c(C(=O)N[C@H]2CCc3ccccc32)cnc2c(-c3cc(Cl)cc(Cl)c3)cccc12 [Example 106],logP (Method L0)[a],[1]; [4],3.7
CCOC(=O)c1cnc2c(-c3cc(Cl)cc(Cl)c3Cl)c(F)ccc2c1N(C)C [Example 1U-8],logP (Method L0)[a],[1]; [5],4.57
CN(c1c(C(=O)N[C@H]2CCOc3ccccc32)cnc2c(-c3ccccc3Cl)cccc12)C1CC1 [Example 252],logP (Method L0),[1]; [4],2.23
O=C(N[C@H]1CCc2ccccc21)c1cnc2c(-c3cc(Cl)cc(Cl)c3)cccc2c1N1CC[C@@H](O)C1 [Example 101],logP (Method L0)[a],[1]; [4],1.8
Nc1c(C(=O)N[C@H]2CCOc3ccccc32)cnc2c(-c3cc(Cl)cc(Cl)c3)cccc12 [Example 58],logP (Method L0)[a],[1]; [4],2.11
"O=C(N[C@H]1CCOc2ccccc21)c1cnc2c(-c3cc(Cl)cc(Cl)c3)cccc2c1-n1nccn1 [Example 189, 8-(3,5-dichlorophenyl)-N-[(4S)-3,4-dihydro-2H-chromen-4-yl]-4-(2H-1,2,3-triazol-2-yl)quinoline-3-carboxamide]",inhibition at 1 µg/mL,[3],> 80%
same,EC50,[2],< 0.1 µg/mL
same,chromatographic logP,[1],5
same,EC50,C. elegans Slo-1a,< 3.16 nM
CCOC(=O)c1cnc2c(-c3cccc(Cl)c3Cl)cccc2c1N1CCOCC1 [Example 1U-15],logP (Method L0)[a],[1]; [5],3.90
O=C(N[C@H]1CCOc2ccccc21)c1cnc2c(-c3cc(Cl)cc(Cl)c3)cccc2c1N1CC2CC(C1)O2 [Example 300],logP (Method L0),[1]; [4],2.6
COc1ccc2c(c1)[C@@H](NC(=O)c1cnc3c(-c4cc(Cl)cc(Cl)c4)cccc3c1N(C)C)CCO2 [Example 147],logP (Method L0)[a],[1]; [4],2.76
CCOP(=O)(CN(C)c1c(C(=O)N[C@H]2CCOc3ccccc32)cnc2c(-c3cc(Cl)cc(Cl)c3)cccc12)OCC [Example 285],logP (Method L0),[1]; [4],4.62
CCSc1c(C(=O)N[C@H]2CCOc3ccccc32)cnc2c(-c3cc(Cl)cc(Cl)c3)cccc12 [Example 367],logP (Method L0)^[a],[1]; [4],5.48
CCOC(=O)c1cnc2c(-c3cc(F)cc(F)c3F)c(F)ccc2c1N(C)C [Example 1U-11],logP (Method L0)[a],[1]; [5],2.40
C[C@H](Nc1c(C(=O)N[C@H]2CCc3ccccc32)cnc2c(-c3cc(Cl)cc(Cl)c3)cccc12)C(N)=O [Example 127],logP (Method L0)[a],[1]; [4],1.9
COC[C@H]1CCCN1c1c(C(=O)N[C@H]2CCc3ccccc32)cnc2c(-c3cc(Cl)cc(Cl)c3)cccc12 [Example 92],logP (Method L0)[a],[1]; [4],2.9
O=C(N[C@H]1CCOc2ccccc21)c1cnc2c(-c3cc(Cl)cc(Cl)c3)cccc2c1N1CC2COCC(C1)O2 [Example 301],logP (Method L0),[1]; [4],3.3
CN(c1c(C(=O)N[C@H]2CCOc3ccccc32)cnc2c(-c3cc(Cl)cc(Cl)c3)cccc12)C1CC1 [Example 254],logP (Method L0),[1]; [4],3.81
COC[C@@H]1CCCN1c1c(C(=O)N[C@H]2CCc3ccccc32)cnc2c(-c3cc(Cl)cc(Cl)c3)cccc12 [Example 91],logP (Method L0)[a],[1]; [4],2.9
O=C(N[C@H]1CCc2ccccc21)c1cnc2c(-c3cc(Cl)cc(Cl)c3)cccc2c1NCCn1cccn1 [Example 125],logP (Method L0)[a],[1]; [4],2.1
CCSc1c(C(=O)N[C@H]2CCOc3ccccc32)cnc2c(-c3cccc(Cl)c3Cl)cccc12 [Example 366],logP (Method L0)^[a],[1]; [4],4.79
CN(CCN1CCOCC1)c1c(C(=O)N[C@H]2CCOc3ccccc32)cnc2c(-c3cc(Cl)cc(Cl)c3)cccc12 [Example 149],logP (Method L0)[a],[1]; [4],2.2
COCCNc1c(C(=O)N[C@H]2CCc3ccccc32)cnc2c(-c3cc(Cl)cc(Cl)c3)cccc12 [Example 89],logP (Method L0)[a],[1]; [4],2.2
O=C(N[C@H]1CCc2ccccc21)c1cnc2c(-c3cc(Cl)cc(Cl)c3)cccc2c1NCc1ccccn1 [Example 99-1],logP (Method L0)[a],[1]; [4],2.2
Cn1c(=O)n(C)n(-c2c(C(=O)N[C@H]3CCOc4ccccc43)cnc3c(-c4cccc(Cl)c4Cl)cccc23)c1=O [Example 321],logP (Method L0)^[a],[1]; [4],3.37
CNc1c(C(=O)N[C@H]2CCOc3ccccc32)cnc2c(-c3cc(F)c(OC(F)F)c(F)c3)c(F)ccc12 [Example 547],logP (Method L0)^[a],[1]; [4],1.81
CN(C)C(=O)CCNc1c(C(=O)N[C@H]2CCc3ccccc32)cnc2c(-c3cc(Cl)cc(Cl)c3)cccc12 [Example 122],logP (Method L0)[a],[1]; [4],2
CCS(=O)(=O)c1c(C(=O)N[C@H]2CCOc3ccccc32)cnc2c(-c3cc(Cl)cc(Cl)c3)cccc12 [Example 371],logP (Method L0)^[a],[1]; [4],4.54

# From US10889573B2, “Anthelmintic quinoline-3-carboxamide derivatives” (Bayer Animal Health GMBH, priority 2016, dated 2021)
